# In ChEMBL document CHEMBL1201862, “PubChem BioAssay data set” (2004):
#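 Compound exposure: 48 hours, 5 concentrations, 96-well plates. GI50: concentration for 50% inhibition of growth.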 The source made the active and inactive calls. Rule as the data show it: active = GI50 up to about 1.1 µM and inactive = higher.
# What was measured:
# Test in all cases: NCI anticancer screen, dose series, 48 h
# [1] = system: 786-0
# [2] = system: A549
# [3] = system: ACHN
# [4] = system: BT-549
# [5] = system: CAKI-1
# [6] = system: DU-145
# [7] = system: EKVX
# [8] = system: HCC 2998
# [9] = system: HCT-15
# [10] = system: HOP-62
# [11] = system: HT-29
# [12] = system: Hs-578T
# [13] = system: K562
# [14] = system: MCF7
# [15] = system: MDA-MB-231
# [16] = system: MDA-MB-435
# [17] = system: MDA-N
# [18] = system: MOLT-4
# [19] = system: NCI-H23
# [20] = system: NCI-H460
# [21] = system: NCI/ADR-RES
# [22] = system: OVCAR-3
# [23] = system: OVCAR-4
# [24] = system: OVCAR-5
# [25] = system: PC-3
# [26] = system: RXF 393
# [27] = system: SF-268
# [28] = system: SF-295
# [29] = system: SF-539
# [30] = system: SK-MEL-28
# [31] = system: SK-MEL-2
# [32] = system: SK-OV-3
# [33] = system: SN12C
# [34] = system: SW-620
# [35] = system: U-251
# [36] = system: UACC-257
# [37] = system: UO-31
# [38] = system: A498
# [39] = system: CCRF-CEM
# [40] = system: COLO 205
# [41] = system: HCT-116
# [42] = system: HOP-92
# [43] = system: IGROV-1
# [44] = system: KM12
# [45] = system: LOX IMVI
# [46] = system: M14
# [47] = system: Malme-3M
# [48] = system: NCI-H226
# [49] = system: NCI-H522
# [50] = system: OVCAR-8
# [51] = system: SK-MEL-5
# [52] = system: SNB-19
# [53] = system: SNB-75
# [54] = system: TK-10
# [55] = system: UACC-62
smiles,measurement,setting,value
NC(CCC(=O)NC(CSC(=O)N(O)c1ccc(Br)cc1)C(=O)NCC(=O)O)C(=O)O (configuration not stated),GI50,[1],> 50 µM (inactive)
same,GI50,[2],> 50 µM (inactive)
same,GI50,[3],> 50 µM (inactive)
same,GI50,[4],> 50 µM (inactive)
same,GI50,[5],> 50 µM (inactive)
same,GI50,[6],> 50 µM (inactive)
same,GI50,[7],> 50 µM (inactive)
same,GI50,[8],> 50 µM (inactive)
same,GI50,[9],> 50 µM
same,GI50,[10],> 50 µM (inactive)
same,GI50,[11],> 50 µM (inactive)
same,GI50,[12],27.4 µM (inactive)
same,GI50,[13],> 50 µM (inactive)
same,GI50,[14],> 50 µM (inactive)
same,GI50,[15],> 50 µM (inactive)
same,GI50,[16],> 50 µM (inactive)
same,GI50,[17],> 50 µM (inactive)
same,GI50,[18],> 50 µM (inactive)
same,GI50,[19],> 50 µM (inactive)
same,GI50,[20],> 50 µM (inactive)
same,GI50,[21],> 50 µM (inactive)
same,GI50,[22],> 50 µM (inactive)
same,GI50,[23],> 50 µM (inactive)
same,GI50,[24],> 50 µM (inactive)
same,GI50,[25],> 50 µM (inactive)
same,GI50,[26],> 50 µM (inactive)
same,GI50,[27],> 50 µM (inactive)
same,GI50,[28],> 50 µM (inactive)
same,GI50,[29],> 50 µM (inactive)
same,GI50,[30],> 50 µM (inactive)
same,GI50,[31],> 50 µM (inactive)
same,GI50,[32],> 50 µM (inactive)
same,GI50,[33],> 50 µM (inactive)
same,GI50,[34],> 50 µM (inactive)
same,GI50,[35],> 50 µM (inactive)
same,GI50,[36],> 50 µM (inactive)
same,GI50,[37],> 50 µM (inactive)
Cc1ccc(-c2c(C#N)c(-c3ccc(Cl)cc3)c(C#N)c(=O)n2NS(=O)(=O)c2ccc(C)cc2)cc1,GI50,[1],42.4 µM (inactive)
same,GI50,[38],35 µM (inactive)
same,GI50,[2],26.4 µM (inactive)
same,GI50,[3],36.2 µM (inactive)
same,GI50,[4],23.5 µM (inactive)
same,GI50,[5],34.1 µM (inactive)
same,GI50,[39],20.7 µM (inactive)
same,GI50,[40],42.1 µM (inactive)
same,GI50,[7],47.6 µM (inactive)
same,GI50,[8],19.5 µM (inactive)
same,GI50,[41],20.5 µM (inactive)
same,GI50,[9],28.2 µM
same,GI50,[10],19.5 µM (inactive)
same,GI50,[42],19.5 µM (inactive)
same,GI50,[11],37.2 µM (inactive)
same,GI50,[43],29.2 µM (inactive)
same,GI50,[13],33.9 µM (inactive)
same,GI50,[44],22.5 µM (inactive)
same,GI50,[45],21.6 µM (inactive)
same,GI50,[46],19.5 µM (inactive)
same,GI50,[14],15.2 µM (inactive)
same,GI50,[15],38.5 µM (inactive)
same,GI50,[16],30.6 µM (inactive)
same,GI50,[17],43.8 µM (inactive)
same,GI50,[18],16.9 µM (inactive)
same,GI50,[47],20.8 µM (inactive)
same,GI50,[48],39.8 µM (inactive)
same,GI50,[20],27.4 µM (inactive)
same,GI50,[49],23.1 µM (inactive)
same,GI50,[21],18.3 µM (inactive)
same,GI50,[23],26.6 µM (inactive)
same,GI50,[24],43.3 µM (inactive)
same,GI50,[50],26.2 µM (inactive)
same,GI50,[25],17.4 µM (inactive)
same,GI50,[26],21 µM (inactive)
same,GI50,[27],26.3 µM (inactive)
same,GI50,[28],24 µM (inactive)
same,GI50,[29],18.7 µM (inactive)
same,GI50,[30],30.3 µM (inactive)
same,GI50,[31],14 µM (inactive)
same,GI50,[51],23.1 µM (inactive)
same,GI50,[32],22.1 µM (inactive)
same,GI50,[33],39.4 µM (inactive)
same,GI50,[52],36.3 µM (inactive)
same,GI50,[53],30.1 µM (inactive)
same,GI50,[34],35.8 µM (inactive)
same,GI50,[54],56.1 µM (inactive)
same,GI50,[35],36.2 µM (inactive)
same,GI50,[36],74 µM (inactive)
same,GI50,[55],18 µM (inactive)
